According to patent publication US20050234046A1 (Kalypsys, Inc., priority 2004, published 2005):

Key:
Assay in all cases: Transient transfection (transactivation) assay in CV-1 cells, GAL4-PPAR chimera, luciferase reporter
Format in all cases: cell-based
[1] = target: T1, PPAR delta (Homo sapiens, UniProt Q03181)
T1 construct: expressed in transfected cells; host or cells: CV-1 cells
T1 sequence (Q03181 211-439 limits assumed): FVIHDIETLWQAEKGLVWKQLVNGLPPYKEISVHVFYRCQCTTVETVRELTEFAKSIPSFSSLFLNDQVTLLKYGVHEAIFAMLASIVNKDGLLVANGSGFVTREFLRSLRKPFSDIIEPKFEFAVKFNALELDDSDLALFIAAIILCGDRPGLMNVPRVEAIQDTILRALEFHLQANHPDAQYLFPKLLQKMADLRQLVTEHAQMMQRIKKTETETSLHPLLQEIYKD

[2] = target: T2, PPAR gamma (Homo sapiens, UniProt P37231)
T2 construct: expressed in transfected cells; host or cells: CV-1 cells
T2 sequence (P37231 238-503 limits assumed): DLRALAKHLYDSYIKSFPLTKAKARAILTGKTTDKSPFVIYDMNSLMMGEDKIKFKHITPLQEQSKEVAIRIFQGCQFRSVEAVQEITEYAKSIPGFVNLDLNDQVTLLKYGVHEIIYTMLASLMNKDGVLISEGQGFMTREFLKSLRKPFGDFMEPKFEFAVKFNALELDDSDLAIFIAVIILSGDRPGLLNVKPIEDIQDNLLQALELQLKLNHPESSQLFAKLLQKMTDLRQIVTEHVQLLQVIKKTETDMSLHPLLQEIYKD
From the text: Compounds may be screened for functional potency in transient transfection assays in CV-1 cells or other cell types for their ability to activate the PPAR subtypes (transactivation assay). A previously established chimeric receptor system was utilized to allow comparison of the relative transcriptional activity of the receptor subtypes on the same synthetic response element and to prevent endogenous receptor activation from complicating the interpretation of results. […] The ligand binding domains for murine and human PPAR-alpha, PPAR-gamma, and PPAR-delta are each fused to the yeast transcription factor GAL4 DNA binding domain. CV-1 cells were transiently transfected with expression vectors for the respective PPAR chimera along with a reporter construct containing four or five copies of the GAL4 DNA binding site driving expression of luciferase. After 8-16 h, the cells are replated into multi-well assay plates and the media is exchanged to phenol-red free DME medium supplemented with 5% delipidated calf serum. 4 hours after replating, cells were treated with either compounds or 1% DMSO for 20-24 hours. Luciferase activity was then assayed with Britelite (Perkin Elmer) following the manufacturer's protocol and measured with either the Perkin Elmer Viewlux or Molecular Devices Acquest Xsee, for example, Kliewer, S. A., et. al. Cell 1995, 83, 813-819). Rosiglitazone is used as a positive control in the hPPAR-γ assay. Wy-14643 and GW7647 is used as a positive control in the hPPAR-α assay. GW501516 is used as the positive control in the hPPAR-δ assay.

[3] = target: T3, PPAR alpha (Homo sapiens, UniProt Q07869)
T3 construct: expressed in transfected cells; host or cells: CV-1 cells
T3 sequence (Q07869 239-466 limits assumed): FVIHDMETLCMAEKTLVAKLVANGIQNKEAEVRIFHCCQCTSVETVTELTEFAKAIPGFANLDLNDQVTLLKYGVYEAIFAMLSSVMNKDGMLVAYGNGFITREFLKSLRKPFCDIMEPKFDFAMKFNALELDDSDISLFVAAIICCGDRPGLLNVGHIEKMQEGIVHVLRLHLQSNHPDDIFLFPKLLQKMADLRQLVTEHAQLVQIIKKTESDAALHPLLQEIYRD
From the text: Compounds may be screened for functional potency in transient transfection assays in CV-1 cells or other cell types for their ability to activate the PPAR subtypes (transactivation assay). A previously established chimeric receptor system was utilized to allow comparison of the relative transcriptional activity of the receptor subtypes on the same synthetic response element and to prevent endogenous receptor activation from complicating the interpretation of results. See, for example; Lehmann, J. M.; Moore, L. B.; Smith-Oliver, T. A; Wilkinson, W. O.; Willson, T. M.; Kliewer, S. A., An antidiabetic thiazolidinedione is a high affinity ligand for peroxisome proliferatur-activated receptor γ (PPARγ), J. Biol. Chem., 1995, 270, 12953-6. The ligand binding domains for murine and human PPAR-alpha, PPAR-gamma, and PPAR-delta are each fused to the yeast transcription factor GAL4 DNA binding domain. CV-1 cells were transiently transfected with expression vectors for the respective PPAR chimera along with a reporter construct containing four or five copies of the GAL4 DNA binding site driving expression of luciferase. After 8-16 h, the cells are replated into multi-well assay plates and the media is exchanged to phenol-red free DME medium supplemented with 5% delipidated calf serum. 4 hours after replating, cells were treated with either compounds or 1% DMSO for 20-24 hours. Luciferase activity was then assayed with Britelite (Perkin Elmer) following the manufacturer's protocol and measured with either the Perkin Elmer Viewlux or Molecular Devices Acquest Xsee, for example, Kliewer, S. A., et. al. Cell 1995, 83, 813-819). Rosiglitazone is used as a positive control in the hPPAR-γ assay. Wy-14643 and GW7647 is used as a positive control in the hPPAR-α assay. GW501516 is used as the positive control in the hPPAR-δ assay.
Compounds of Examples 1-233 were assayed to measure their biological activity with respect to their EC50 values and efficacy for modulating PPAR-alpha, PPAR-gamma, and PPAR-delta as set forth in Table 3.

Row | Structure (SMILES) | EC50 [1] [µM] | EC50 [2] [µM] | EC50 [3] [µM]
1 | COC[C@@H]1CN(S(=O)(=O)c2ccc(C)c(CC(=O)O)c2)CCN1c1ccc(C(F)(F)F)cn1 [Example 40] | 5 to 100 | > 100 | > 100
2 | COc1ccccc1N1CCN(S(=O)(=O)c2cc(CC(=O)O)ccc2C)CC1 [Example 159, {3-[4-(2-Methoxy-phenyl)-piperazine-1-sulfonyl]-4-methyl-phenyl}-acetic acid] | > 100 | > 100 | > 100
3 | C[C@H]1CN(S(=O)(=O)c2cccc(CC(=O)O)c2)CCN1c1ccc(C(F)(F)F)c(F)c1 [Example 218, {3-[4-(3-Fluoro-4-trifluorometbyl-phenyl)-3-(S)-methyl-piperazine-1-sulfonyl]-phenyl}-acetic acid] | < 5 | 5 to 100 | < 5
4 | Cc1cc(CC(=O)O)cc(S(=O)(=O)N2CCN(c3ccc(Cl)c(Cl)c3)CC2)c1 [Example 166, {3-[4-(3,4-Dichloro-phenyl)-piperazine-1-sulfonyl]-5-methyl-phenyl}-acetic acid] | < 5 | 5 to 100 | 5 to 100
5 | Cc1ccc(CC(=O)O)cc1S(=O)(=O)N1CCN(c2ccc(Cl)c(Cl)c2)CC1 [Example 165, {3-[4-(3,4-Dichloro-phenyl)-piperazine-1-sulfonyl]-4-methyl-phenyl}-acetic acid] | < 5 | 5 to 100 | > 100
6 | Cc1cccc(N2CCN(S(=O)(=O)c3cc(CC(=O)O)ccc3C)CC2C)c1 (stereo not drawn) [Example 149, [4-Methyl-3-(3-methyl-4-m-tolyl-piperazine-1-sulfonyl)-phenyl]-acetic acid] | > 100 | 5 to 100 | > 100
7 | C[C@@H]1CN(c2ccc(OC(F)(F)F)cc2)C[C@H](C)N1S(=O)(=O)c1ccc(O)c(CC(=O)O)c1 [Example 209, {5-[2,6-Dimethyl-4-(4-trifluoromethoxy-phenyl)-piperazine-1-sulfonyl]-2-hydroxy-phenyl}-acetic acid] | 5 to 100 | > 100 | > 100
8 | Cc1ccc(S(=O)(=O)N2CCN(c3ccc(OC(F)(F)F)cc3)CC2)cc1CC(=O)O [Example 87, {2-Methyl-5-[4-(4-trifluoromethoxy-phenyl)-piperazine-1-sulfonyl]-phenyl}-acetic acid] | < 5 | 5 to 100 | < 5
9 | Cc1ccc(S(=O)(=O)N2CCN(c3ccc(C(F)(F)F)cn3)CC2C)cc1CC(=O)O (stereo not drawn) [Example 19] | < 5 | 5 to 100 | 5 to 100
10 | O=C(O)Cc1cccc(S(=O)(=O)N2CCN(CC3CCCCC3)CC2)c1 [Example 132, [3-(4-Cyclohexylmethyl-piperazine-1-sulfonyl)-phenyl]-acetic acid] | > 100 | 5 to 100 | > 100
11 | O=C(O)Cc1cccc(S(=O)(=O)N2CCN(c3ccc(F)cc3)CC2)c1 [Example 144, {3-[4-(4-Fluoro-phenyl)-piperazine-1-sulfonyl]-phenyl}-acetic acid] | 5 to 100 | 5 to 100 | > 100
12 | O=C(O)Cc1cccc(S(=O)(=O)N2CCN(c3ccc(C(F)(F)F)cc3Br)CC2)c1 [Example 96] | < 5 | > 100 | < 5
13 | CC(C)(Oc1cccc(S(=O)(=O)N2CCN(c3ccc(Cl)c(Cl)c3)CC2)c1)C(=O)O [Example 189, 2-{3-[4-(3,4-Dichloro-phenyl)-piperazine-1-sulfonyl]-phenoxy}-2-methyl-propionic acid] | > 100 | 5 to 100 | > 100
14 | Cc1ccc(S(=O)(=O)N2[C@@H](C)CN(c3ccc(C(F)(F)F)cn3)C[C@@H]2C)cc1CC(=O)O [Example 103, {5-[2,6-(S,S)-Dimethyl-4-(5-trifluoromethyl-pyridin-2-yl)-piperazine-1-sulfonyl]-2-methyl-phenyl}-acetic acid] | < 5 | 5 to 100 | 5 to 100
15 | O=C(O)Cc1cccc(S(=O)(=O)N2CCN(CCc3ccccc3)CC2)c1 [Example 121, [3-(4-phenethyl-piperazine-1-sulfonyl)-phenyl]-acetic acid] | > 100 | > 100 | > 100
16 | Cc1ccc(S(=O)(=O)N2C[C@@H]3C[C@H]2CN3c2ccc(F)cc2)cc1CC(=O)O [Example 11] | 5 to 100 | > 100 | > 100
17 | CCC1CN(S(=O)(=O)c2ccc(C)c(CC(=O)O)c2)CCN1c1ccc(C(F)(F)F)cn1 (stereo not drawn) [Example 94, {5-[3-Ethyl-4-(5-trifluoromethyl-pyridin-2-yl)-piperazine-1-sulfonyl]-2-methyl-phenyl}-acetic acid] | < 5 | < 5 | 5 to 100
18 | Cc1ccc(S(=O)(=O)N2CCN(c3ccc(F)cc3F)CC2)cc1CC(=O)O [Example 180, {5-[4-(2,4-Difluoro-phenyl)-piperazine-1-sulfonyl]-2-methyl-phenyl}-acetic acid] | 5 to 100 | 5 to 100 | > 100
19 | Cc1cc(CC(=O)O)cc(S(=O)(=O)N2CCN(c3ccc(C(F)(F)F)cn3)CC2)c1 [Example 225] | < 5 | < 5 | 5 to 100
20 | COc1ccc(CC(=O)O)cc1S(=O)(=O)N1[C@H](C)CN(c2ccc(C(F)(F)F)cn2)C[C@@H]1C [Example 82, {3-[2,6-Dimethyl-4-(5-trifluoromethyl-pyridin-2-yl)-piperazine-1-sulfonyl]-4-methoxy-phenyl}-acetic acid] | 5 to 100 | > 100 | > 100
21 | O=C(O)Cc1cccc(S(=O)(=O)N2CCN(c3ccc(Cl)c(Cl)c3)CC2)c1 [Example 115, {3-[4-(3,4-Dichloro-phenyl)-piperazine-1-sulfonyl]-phenyl}-acetic acid] | < 5 | 5 to 100 | 5 to 100
22 | Cc1cc(CC(=O)O)cc(S(=O)(=O)N2CCN(c3ccccc3F)CC2)c1 [Example 172, {3-[4-(2-Fluoro-phenyl)-piperazine-1-sulfonyl]-5-methyl-phenyl}-acetic acid] | > 100 | > 100 | > 100
23 | Cc1ccc(CC(=O)O)cc1S(=O)(=O)N1CCN(c2ccc(C(C)(C)C)cc2)CC1 [Example 156, {3-[4-(4-tert-Butyl-phenyl)-piperazine-1-sulfonyl]-4-methyl-phenyl}-acetic acid] | 5 to 100 | 5 to 100 | > 100
24 | O=C(O)Cc1cccc(S(=O)(=O)N2CCN(c3ccccc3F)CC2)c1 [Example 141, {3-[4-(2-Fluoro-phenyl)-piperazine-1-sulfonyl]-phenyl}-acetic acid] | 5 to 100 | > 100 | > 100
25 | Cc1cc(S(=O)(=O)N2CCN(c3ccc(C(F)(F)F)cn3)CC2)cc(CC(=O)O)c1Br [Example 196, {2-Bromo-3-methyl-5-[4-(5-trifluoromethyl-pyridin-2-yl)-piperazine-1-sulfonyl]-phenyl}-acetic acid] | < 5 | < 5 | 5 to 100
26 | Cc1ccc(S(=O)(=O)N2CCCC(c3cccc(C(F)(F)F)c3)C2)cc1CC(=O)O (stereo not drawn) [Example 16, {2-Methyl-5-[3-(3-trifluoromethyl-phenyl)-piperidine-1-sulfonyl]-phenyl}-acetic acid] | 5 to 100 | < 5 | > 100
27 | COC(=O)[C@@H]1CN(c2ccc(C(F)(F)F)cn2)CCN1S(=O)(=O)c1ccc(C)c(CC(=O)O)c1 [Example 37, (S)-1-(3-Carboxymethyl-4-methyl-benzenesulfonyl)-4-(S-trifluoromethyl-pyridin-2-yl)-piperazine-2-carboxylic acid methyl ester] | < 5 | > 100 | > 100
